# Marks after values point to notes of the source that are not given here.
# Tests used:
# [1] = system: AAMU-Ab; experiment: Competitive antigen ELISA, cross-reactivity of AAMU-Ab; assay type: binding, rabbit; details: for % Cross-Reaction AAMU-Ab: competitive antigen ELISA, 0 = absence of inhibition or inhibition no higher than 40% at highest concentration tested (5×10^−3 M)
# Description: (§1) Buffers and water without additives are filtered through millipore filters and kept for 1 week. BSA, antibodies, Tween™ 20 and horse radish peroxidase conjugates are added to these buffers and water just prior to use. Urine samples are usually collected 4 hours after drinking a cup of coffee (instant or brewed with approximately 100 mg of caffeine per cup) and stored at −80° C. The urine samples are diluted 10 times with sodium phosphate buffer (620 mosm, pH 7.50) and are subsequently diluted with water to give concentrations of AAMU and 1X no higher than 3×10^−6 M in the ELISA. All the pipettings are done with an eight-channel pipette, except those of the antibody and sample solutions. Starting with the last well, 100 μL of a carbonate buffer (100 mM, pH 9.6) containing 2.5 μg mL-^1 antibodies are added to each well. After 90 min. at room temperature, the wells are washed three times with […] of TPB: isotonic sodium phosphate buffer (310 mosm, pH 7.50) containing 0.05% Tween™ 20.
# (§2) After the initial wash, unoccupied sites are blocked by incubation for 90 min. at room temperature with 100 μL TBP containing 3% BSA. The wells are washed four times with 100 μL TPB. The washing is followed by additions of 50 μL of 12 mg mL^−1 AAMU-HRP or 1X-HRP conjugate in 2×TPB containing 2% BSA, and 50 μL of either water, standard (13 standards; AAMU or 1X, 2×10^−4 to 2×10^−8 M) or sample in duplicate. The microplate is gently shaken with an orbital shaker at room temperature for 3-4 hours. The wells are washed three times with 100 μL TPB containing 1% BSA and three times with water containing 0.05% Tween™ 20. To the washed plate is added 150 μL of a substrate buffer composed of citric acid (25 mM) and sodium phosphate dibasic buffer (50 mM, pH 5.0) containing 0.06% hydrogen peroxide and 0.04% o-phenylenediamine hydrochloride.
# (§3) Buffers and water without additives were filtered through millipore filters and kept for 1 week. BSA, antibodies, Tween™ 20 and horse radish peroxidase conjugates were added to these buffers and water just prior to use. Urine samples were usually collected 4 hours after drinking a cup of coffee (instant or brewed with approximately 100 mg of caffeine per cup) and stored at −80° C. They were diluted 10 times with sodium phosphate buffer (620 mosm, pH 7.50) and were subsequently diluted with water to give concentrations of AAMU and 1X no higher than 3×10^−6 M in the ELISA. All the pipettings were done with an eight-channel pipette, except those of the antibody and sample solutions. Starting with the last well, 100 μL of a carbonate buffer (100 mM, pH 9.6) containing 2.5 μg mL-^1 antibodies was pipetted. After 90 min. at room temperature, the wells were washed three times with 100 μL of TPB: isotonic sodium phosphate buffer (310 mosm, pH 7.50) containing 0.05% Tween™ 20.
# (§4) After the initial wash, unoccupied sites were blocked by incubation for 90 min. at room temperature with 100 μL TBP containing 3% BSA. The wells were washed four times with 100 μL TPB. This was followed by additions of 50 μL of 12 mg mL^−1 AAMU-HRP or 1X-HRP conjugate in 2×TPB containing 2% BSA, and 50 μL of either water, standard (13 standards; AAMU or 1X, 2×10^−4 to 2×10^−8 M) or sample in duplicate. The microplate was gently shaken with an orbital shaker at room temperature for 3-4 hours. The wells were washed three times with 100 μL with TPB containing 1% BSA and three times with water containing 0.05% Tween™ 20. To the washed plate was added 150 μL of a substrate buffer composed of citric acid (25 mM) and sodium phosphate dibasic buffer (50 mM, pH 5.0) containing 0.06% hydrogen peroxide and 0.04% o-phenylenediamine hydrochloride. After 20 min. at room temperature with shaking, the reaction was stopped with 50 μL of 2.5 N HCl.
# (§5) The cross reactivities of AAMU-Ab and 1X-Ab were tested using a wide variety of caffeine metabolites and structural analogs (Table 2 below).
# [2] = system: 1X-Ab; experiment: Competitive antigen ELISA, cross-reactivity of 1X-Ab; assay type: binding, rabbit; details: for % Cross-Reaction 1X-Ab: competitive antigen ELISA, 0 = absence of inhibition or inhibition no higher than 40% at highest concentration tested (5×10^−3 M)
# Description: as §1, §2, §3, §4, §5
"IC50 ([2]; 1X-Ab, 1X-HRP conjugate, read-out: concentration required for 50% inhibition in the competitive antigen ELISA) [µM]","IC50 ([1]; AAMU-Ab, AAMU-HRP conjugate, read-out: concentration required for 50% inhibition in the competitive antigen ELISA) [µM]",SMILES,% Cross-Reaction AAMU-Ab [1],% Cross-Reaction 1X-Ab [2] [%]
,,"Cn1c(=O)c2c(ncn2C)n(C)c1=O [1,3,7-Trimethyl Xanthine (Caffeine), 1,3,7-Trimethyl Xanthine]",0%,0
,,"Cn1c(=O)c2[nH]cnc2n(C)c1=O [1,3-Dimethyl Xanthine (Theophylline), 1,3-Dimethyl Xanthine]",0%,0.2
,,"Cn1c(=O)[nH]c2ncn(C)c2c1=O [1,7-Dimethyl Xanthine (Paraxanthine), 1,7-Dimethyl Xanthine]",0%,0.5
,,"Cn1c(=O)[nH]c2[nH]c(=O)n(C)c2c1=O [1,7-Dimethyluric acid]",0%,0
10,,"Cn1c(=O)[nH]c2nc[nH]c2c1=O [1-Methyl Xanthine (1X), 1-Methyl Xanthine]",0%,100
,,Cn1c(=O)[nH]c2[nH]c(=O)[nH]c2c1=O [1-Methyluric acid],0%,11
,,"Cn1cnc2c1c(=O)[nH]c(=O)n2C [3,7-Dimethyl Xanthine (Theobromine), 3,7-Dimethyl Xanthine]",0%,0
,,Cn1c(=O)[nH]c(=O)c2[nH]cnc21 [3-Methyl Xanthine],0%,0
,,"CC(=O)Nc1c(N)n(C)c(=O)n(C)c1=O [5-Acetamino-6-amino-1,3-dimethyluracil]",0%,0
,1.5,CC(=O)Nc1c(N)n(C)c(=O)[nH]c1=O [5-Acetamino-6-amino-1-methyluracil],100%,0
,,CC(=O)Nc1c(N)[nH]c(=O)[nH]c1=O [5-Acetamino-6-amino-uracil],0.6%,0
,,Cn1cnc2[nH]c(=O)[nH]c(=O)c21 [7-Methyl Xanthine],0%,0
,,Cc1nc2[nH]c(=O)[nH]c(=O)c2[nH]1 [8-Methyl Xanthine],0%,0
,,Nc1nc2nc[nH]c2c(=O)[nH]1 [Guanine],0%,0
,,O=c1[nH]cnc2nc[nH]c12 [Hypoxanthine],0%,0
,,O=c1cc[nH]c(=O)[nH]1 [Uracil],0%,0
,,O=c1[nH]c(=O)c2[nH]c(=O)[nH]c2[nH]1 [Uric acid],0%,0
,,O=c1[nH]c(=O)c2[nH]cnc2[nH]1 [Xanthine],0^a %,0

# Source: US20030103901A1, “ELISA kit for the determination of CYP2C19 metabolic phenotypes and uses thereof” (McGill University, priority 2001, published 2003)
